Test results reported in patent US10175228B2, “Method of using transmembrane channel-like protein 6 (TMC6) protein to identify substances affecting salty taste” (priority 2016, dated 2019).

Experiments:
[1] = test system: C57BL/6J mouse and knockout mice; assay: NaCl palatability test, two-bottle choice method; conditions: for NaCl palatability: 96 hr
Procedure: Thus, an NaCl palatability test was carried out by using the wild-type C57BL/6J mouse and the knockout mice obtained in Example 1.
The NaCl palatability test was carried out by the two-bottle choice method (abbreviated as “two-bottle method”) for 96 hr. That is, two 11-mL plastic bottles (water dispenser bottles) were filled with a test aqueous solution, moisture outside of the bottles was wiped out and dried, the weights thereof (the total weight of the bottle, a water dispenser tube made of stainless, and the aqueous solution, for each bottle) were measured, and the bottles were inserted into a metal lid of a breeding cage at an angle of approximately 30 degrees. […] The positions of the bottles were laterally interchanged every day. The weights of the bottles were measured every 24 hours, to calculate the reduced amounts of the aqueous solutions. Separately, four water dispenser bottles filled with deionized water were located on a vacant breeding cage, and changes of the weights were measured every day, to calculate an average value of the sum of the evaporation amount of the aqueous solution and the dropped amount of the aqueous solution due to experimental operation (approximately 0.05 g to 0.06 g). To prevent dropping of the aqueous solutions due to rocking of the lid of the breeding cage and the bottles by the mice, a transparent acryl board (10 cm×15 cm×1 cm, 180 g) was located on the bottles as a weight. The average value of the sum of the evaporation and dropped amounts of each aqueous solution was subtracted from the reduced amount of the same, and the resulting value was regarded as the intake amount of each aqueous solution. The ratio of the intake amount of the NaCl aqueous solution with respect to the total intake amount of the control aqueous solution and the NaCl aqueous solution was calculated and regarded as NaCl palatability.

[2] = test system: Pongo abelii TMC6 protein; assay: Calcium imaging of CHO-K1 cells expressing the Pongo abelii TMC6 gene; type: cell-based; conditions: stimulation with high-concentration NaCl solution for 60 sec, 31 cells
Text: (§1) CHO-K1 cells were transfected with Macaca mulatta TMC6-2A-YC260TM in pcDNA3.1(−), Pongo abelii TMC6-2A-YC260TM in pcDNA3.1(−), Mouse-Aotus nancymaae chimera TMC6 2A-YC260TM in pcDNA3.1(−), or YC2.60-pcDNA, to prepare TMC6-expressing cells (cells expressing the Macaca mulatta TMC6 gene, the Pongo abelii TMC6 gene, or the mouse/Aotus nancymaae chimeric TMC6 gene, in combination with the YC2.60 gene) and control cells (cells expressing the YC2.60 gene). The prepared cells were stimulated, and activation of the cells was measured. The procedure was as follows.
(§2) First, a plurality of sterile cover glasses (18×32 mm, Matsunami Glass) were placed at the bottom of a culture dish having a diameter of 100 mm so as not to be overlapped to each other. CHO-K1 cells (ATCC) were inoculated thereto while adjusting the number of the cells to obtain 60% confluence, and cultured for 24 hr. Then, medium exchange was carried out. As the medium, 12 mL of Ham's F-12K (Kaighn's) (Life Technologies) containing 10% fetal bovine serum (Life Technologies) was used. […]
(§3) Change of the intracellular calcium concentration was measured and analyzed with analysis software equipped with FV1200. An average YFP/CFP value of all the cell of which the YFP/CFP value was changed by stimulation with the ATP stimulation solution was calculated at each measurement. […]

[3] = test system: Macaca mulatta TMC6 protein; assay: Calcium imaging of CHO-K1 cells expressing the Macaca mulatta TMC6 gene; type: cell-based; conditions: stimulation with high-concentration NaCl solution for 60 sec, 28 cells
Text: as §1, §2, §3

[Cl-].[Na+] [NaCl, sodium chloride]
NaCl palatability ([1]; hetero knockout mouse of the TMC6 gene (Tmc6 +/−), 100 mM NaCl + 30 μM amiloride): high | NaCl palatability ([1]; homo knockout mouse of the TMC3 gene (Tmc3 −/−), 100 mM NaCl + 30 μM amiloride): high | NaCl palatability ([1]; homo knockout mouse of the TMC6 gene (Tmc6 −/−), 100 mM NaCl + 30 μM amiloride, compared with the other subject mice (P<0.05 or P<0.01)): remarkably reduced | NaCl palatability ([1]; homo knockout mouse of the TMC8 gene (Tmc8 −/−), 100 mM NaCl + 30 μM amiloride): high | palatability for a NaCl aqueous solution ([1]; wild-type C57BL/6J mouse fed D12450B (0.1% sodium), without amiloride): slightly higher than that for water | NaCl palatability ([1]; wild-type C57BL/6J mouse, 100 mM NaCl, in the presence of 30 μM amiloride): remarkable and high | change of average YFP/CFP value (intracellular calcium concentration) [2]: increase | change of average YFP/CFP value (intracellular calcium concentration) [3]: increase
